Where “and” joins values, the source holds several entries; their conditions need not be identical. Identical values can stand only once.
Tested on: FGF2
Experiment: Intramuscular FGF2 in gastrocnemius muscle lysates after 8 weeks of dietary supplementation, aged SD rat model of sarcopenia
Type: in vivo, Sprague Dawley (SD) rat
Details: for level of intramuscular FGF2, individual rat / level of intramuscular FGF2, AVE: aged (21 month) SD rats, gastrocnemius lysate, end of 8 week study, EGCg 50 mg/kg bw; for level of intramuscular FGF2, individual rat: Ca-HMB 340 mg/kg bw in AIN-93M diet, one value per rat (Rat 1-10); for % Change from Control (intramuscular FGF2): group average vs control diet AIN-93M, 8 weeks; for level of intramuscular FGF2, AVE: group average, Ca-HMB 340 mg/kg bw
Method: Example 3 illustrates the effect of 8 weeks of dietary supplementation in the aged Sprague Dawley (SD) rat model of sarcopenia. More particularly, the level of intramuscular FGF2 in gastrocnemius muscle lysates of aged SD rats (21 month) were analyzed and compared. The four experimental groups included:
1) control group: fed AIN-93M (purified diet);
2) EGCg group: fed AIN-93M+EGCg (Teavigo®-DSM-50 mg/kg bw);
3) HMB group: fed AIN-93M+Ca-HMB (340 mg/kg bw); and
4) HMB+EGCg group: fed AIN-93M+Ca-HMB (340 mg/kg bw)+EGCg (Teavigo®-50 mg/kg bw).
A total of 40 rats were divided equally among the four groups. Whole gastrocnemius muscles were collected from euthanized rats and flash frozen in liquid nitrogen. Approximately 200 mg tissue was obtained from each muscle by mechanical biopsy punch. Specimens were then pulverized on liquid nitrogen and transferred to 15 mL conical tube and weighed. A mild, detergent free lysis buffer (9×) was added to the dried specimen in the conical tube. 9× Lysis buffer (50 mM Tris.HCl, 2 mM EDTA, pH 7.4/NaOH) was supplemented with a mammalian protease inhibitor cocktail (Sigma) at a 1:200 dilution and stored on ice. The specimens were then vortexed again for 10 sec. and transferred to a 1.5 mL tube. Lysates were centrifuged/clarified for 5 min. at 11000 rpm at 4° C. in a standard table-top Eppendorf centrifuge. Supernatant (1 mL) was aliquotted to a 2 mL cryotube and stored at −80° C. Lystates were analyzed by Myriad Rules Based Medicine (Austin, Tex.) on the RodentMAP® v. 2.0 Antigens and Rat METABOLIC® multi-analyte profiling platforms.

Compound | level of intramuscular FGF2, individual rat | % Change from Control (intramuscular FGF2) [%] | level of intramuscular FGF2, AVE
CC(C)(O)CC(=O)O [HMB, beta-hydroxy-beta-methylbutyrate] | 15.0 ng/mL of lysate and 21.0 ng/mL of lysate and 6.1 ng/mL of lysate and 3.1 ng/mL of lysate and 4.3 ng/mL of lysate and 11.0 ng/mL of lysate and 4.0 ng/mL of lysate and 4.9 ng/mL of lysate | 18.8 | 8.68 ng/mL of lysate
epigallocatechin-3-gallate [EGCg] | 3.7 ng/mL of lysate (2×) and 16.0 ng/mL of lysate and 15.0 ng/mL of lysate and 9.9 ng/mL of lysate and 5.5 ng/mL of lysate and 3.1 ng/mL of lysate (3×) and 7.8 ng/mL of lysate | −2.9 | 7.09 ng/mL of lysate
